The target in this test is T1, NEDD8-activating enzyme (NAE) (Homo sapiens, UniProt Q8TBC4).
T1 construct: gene UBA3; recombinant human NAE (APPBP1/UBA3 heterodimer); with APPBP1 (NAE1)
T1 sequence (Q8TBC4 2-463): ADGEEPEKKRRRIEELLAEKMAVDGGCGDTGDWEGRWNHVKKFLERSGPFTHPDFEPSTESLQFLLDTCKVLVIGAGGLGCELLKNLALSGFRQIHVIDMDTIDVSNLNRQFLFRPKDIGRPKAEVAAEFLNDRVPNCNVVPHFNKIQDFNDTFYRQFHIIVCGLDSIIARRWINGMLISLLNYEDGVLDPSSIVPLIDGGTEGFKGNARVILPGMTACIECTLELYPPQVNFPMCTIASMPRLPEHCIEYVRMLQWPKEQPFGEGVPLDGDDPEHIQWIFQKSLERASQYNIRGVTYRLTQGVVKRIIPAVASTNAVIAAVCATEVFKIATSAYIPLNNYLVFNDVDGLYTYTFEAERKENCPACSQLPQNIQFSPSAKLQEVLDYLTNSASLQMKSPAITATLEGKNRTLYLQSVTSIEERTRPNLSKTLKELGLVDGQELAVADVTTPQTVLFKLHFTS
T1 sequence (Q13564 2-534 partner): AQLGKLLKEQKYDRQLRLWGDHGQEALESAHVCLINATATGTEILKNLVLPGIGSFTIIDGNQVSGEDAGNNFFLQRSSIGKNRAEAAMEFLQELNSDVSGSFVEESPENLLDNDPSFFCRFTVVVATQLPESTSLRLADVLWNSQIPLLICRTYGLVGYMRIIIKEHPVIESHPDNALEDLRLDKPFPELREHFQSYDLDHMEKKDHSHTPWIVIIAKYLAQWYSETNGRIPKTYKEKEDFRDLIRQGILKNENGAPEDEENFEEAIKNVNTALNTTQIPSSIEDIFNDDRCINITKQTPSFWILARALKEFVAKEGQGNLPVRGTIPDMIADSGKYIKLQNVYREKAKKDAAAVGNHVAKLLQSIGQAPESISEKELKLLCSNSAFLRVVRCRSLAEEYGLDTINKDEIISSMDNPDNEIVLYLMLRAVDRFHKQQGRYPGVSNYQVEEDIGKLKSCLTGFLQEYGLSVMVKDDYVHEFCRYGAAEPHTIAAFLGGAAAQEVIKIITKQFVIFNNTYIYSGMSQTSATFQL
Kind of test: cell-free Ubc12-NEDD8 conjugation assay, western blot. It is filed as biochemical. On the technique in general: A western blot detects proteins with antibodies after separation by electrophoresis.
For orientation: IC50 means the concentration that inhibits the measured activity by half. Low values mean higher potency, high ones lower potency. `Cc1cc2nc3c4ccc[n+]5c4c4c(ccc[n+]4[Rh-3]546([c]5ccccc5-c5cccc[n+]54)[c]4ccccc4-c4cccc[n+]46)c3nc2cc1C` [compound 2, complex 2] gave an IC50 of around 6.25 µM.

In turn, `c1cc[c]2c(c1)-c1cccc[n+]1[Rh-3]213([c]2ccccc2-c2cccc[n+]21)[n+]1cccc2c4nc5ccccc5nc4c4ccc[n+]3c4c21` [compound 1, [Rh(ppy)2(dppz)]^+] gave an IC50 of around 1.5 µM.

For `O=Cc1ccc2[c](c1)[Rh-3]13([c]4cc(C=O)ccc4-c4cccc[n+]41)([n+]1ccccc1-2)[n+]1cccc2c4nc5ccc([N+](=O)[O-])cc5nc4c4ccc[n+]3c4c21` [compound 4, complex 4], the IC50 is around 13 µM.

Turning to `Cc1cc2nc3c4ccc[n+]5c4c4c(ccc[n+]4[Rh-3]546([c]5cc(C=O)ccc5-c5cccc[n+]54)[c]4cc(C=O)ccc4-c4cccc[n+]46)c3nc2cc1C` [compound 3, complex 3], the IC50 is around 6.25 µM.
